Measured values reported in patent US8426364B2, “Method of preventing progression of hypertension-induced heart failure with PKC peptides” (The Board of Trustees of the Leland Stanford Junior …, priority 0011, dated 2013).

Columns and labels:
Dahl salt-sensitive rats [1] = assay: Histological analysis of left ventricle (Masson's trichrome, H&E); assay type: in vivo, rat
Protocol: For morphometric analysis, left ventricle (LV) specimens from 17-week-old rats (n=4 for each group) were fixed with 10% buffered formalin and embedded in paraffin. Several sections were prepared from each specimen and stained with either hematoxylin and eosin (H&E) for assessment of inflammation and proliferation of vascular cells, or with Masson's trichrome stain to assess the area of cardiac fibrosis using a point-counting method (22, 23).

92 genes = assay: Real-time PCR gene expression in LV tissue; assay type: in vivo, rat; conditions: LV from 17-week-old rats; 92 genes examined
Protocol: In another study, the effects of pharmacological inhibition or activation of εPKC and olmesartan on gene expression profile was analyzed. To address the molecular differences in the protective effects induced by εPKC inhibition and olmesartan, real-time PCR was used to monitor changes in gene expression resulting from each treatment. The effects of chronic treatment (as above) with the εPKC inhibitor (TAT47-57-εV1-2), the εPKC activator (TAT47-57-ΨεRACK) or olmesartan (ARB) in LV from 17-week-old rats on the expression of 92 genes was examined. […]
Two μg of total RNA extracted from the LV tissues of each […] rat (n=6 for each group) were converted to first-strand cDNA by reverse transcription using High Capacity cDNA Archive kit (Applied Biosystems). […] The fluorescence signals were normalized to the ubiquitously expressed housekeeping gene, β-actin. Fold-changes of mRNA expression of each group compared to the LS-control were determined by comparing cycle threshold values (24). Statistical analysis was assessed by 1-way factorial ANOVA with Fisher's test. […]

Dahl salt-sensitive rats [2] = assay: Hypertension-induced heart failure rat model (survival, echocardiography, blood pressure, body weight); assay type: in vivo; conditions: for Systolic Wall Stress: calculated (SBP × ESD)/[4 × PWT × (1 + PWT/ESD)]; for Systolic Wall Stress / EDD (LV end-diastolic diameter) / ESD (LV end-systolic diameter) / FS (LV fractional shortening) / PWT (LV posterior wall thickness): mean ± SEM; for survival: treated for six weeks, compared to TAT control peptide
Protocol: To determine whether εPKC plays any role in the transition to heart failure and death, HS rats were treated with the selective εPKC inhibiting peptide, TAT47-57-εV1-2 (εV1-2; 2.8 μg/kg/day using a subcutaneous Alzet pump (26)) or with saline as a control (HS-control) from the age of 11 weeks (when compensatory hypertrophy is seen) to 17 weeks (when heart failure is apparent; FIG. 1A)). Another group of hypertensive rats was treated for the same period with a common clinical treatment, the angiotensin II receptor type 1 blocker (ARB, olmesartan, Olm; 3 mg/kg/day).
Animal protocols were approved by the Stanford University Institutional Animal Care and Use Committee. Dahl salt-sensitive rats provide a reliable animal model of hypertension-induced heart failure. When placed on 8% NaCl-containing diet from the age of 6 weeks (HS rats), the rats develop compensative left ventricular hypertrophy by the age of 11 weeks, and die from heart failure when they reach 16 to 21 weeks (21, 25). Male Dahl salt-sensitive rats were fed with an 8% NaCl-containing diet (Dahl-high-salt) or with a 0.3% NaCl low salt diet (LS-control; n=25) from the age of 6 weeks onward as previously reported (3, 21). Dahl-high-salt rats were treated between the ages of 11 and 17 weeks with the selective εPKC inhibiting peptide, TAT47-57-εV1-2 (εV1-2; n=10, 2.8 μg/kg/day), with TAT47-57-εV1-1 (εV1-1; n=14, 2.8 μg/kg/day), or with saline as a control (HS-Control; n=12), using osmotic pumps implanted subcutaneously. A fourth group was treated with angiotensin II receptor type 1 blocker, olmesartan (ARB; n=12, 3 mg/kg/day in 0.5% carboxymethylcellulose) delivered by daily gavage for the same period. A fifth group was treated from 15 to 17 weeks of age with the selective εPKC activating peptide, TAT47-57-ΨεRACK (ΨεRACK; n=17, 2.8 μg/kg/day) using an osmotic pump implanted subcutaneously (FIG. 1).
The osmotic pumps were replaced every two weeks, but were discontinued after the age of 17 weeks because half of the HS-control rats died by that age. Additional groups were treated with εV1-2 (using the Alzet pump) together with ARB (n=12) or with ARB alone (n=13) from 11 to 19 weeks of age (FIG. 6). Survival rate, fractional shortening and blood pressure were evaluated in these groups. Systolic blood pressure was measured by the tail-cuff method (BP-2000 Blood Pressure Analysis System, Visitech Systems, Inc), and fractional shortening was measured by transthoracic echocardiography (Vivid 7, GE). Additional control Dahl-high-salt rats were treated with TAT47-57 carrier peptide between 11 to 17 weeks or between 15 to 17 weeks, with vehicle for ARB (0.5% carboxymethylcellulose) or were left untreated and evaluated for survival rate, cardiac function and blood pressure.

Dahl salt-sensitive rats [3] = assay: as above; assay type: in vivo; conditions: age of 11, 13, 15 and 17 weeks; β peptide study
[4] = 17 weeks of age, high-salt rats, εV1-2 and Olm treated 11 to 17 weeks, ΨεR 15 to 17 weeks
[5] = 24 weeks of age, treated 11 to 19 weeks of age

With `CCCc1nc(C(C)(C)O)c(C(=O)O)n1Cc1ccc(-c2ccccc2-c2nnn[nH]2)cc1` [Olm, olmesartan] the “reduction of fibrosis in LV” value (Dahl salt-sensitive rats [1]; as compared with HS-control, 17-week-old rats, Masson's trichrome) was about 50%, the “number of genes with expression modified by this treatment but not the other” value (92 genes) was 15 genes and the “Systolic Wall Stress” value (Dahl salt-sensitive rats [2]; 17 weeks of age) was 50.7 ± 4.4 g/cm^2. The “EDD (LV end-diastolic diameter)” value (Dahl salt-sensitive rats [2]; [4]) was 7.3 ± 0.2 mm, the “ESD (LV end-systolic diameter)” value (Dahl salt-sensitive rats [2]; [4]) was 3.1 ± 0.2 mm and the “FS (LV fractional shortening)” value (Dahl salt-sensitive rats [2]; [4]) was 58.4 ± 1.6 %. For the same compound, the “PWT (LV posterior wall thickness)” value (Dahl salt-sensitive rats [2]; [4]) was 1.5 ± 0.04 mm, the “EDD (LV end-diastolic diameter)” value (Dahl salt-sensitive rats [2]; [5]) was 7.9 ± 0.2 mm and the “ESD (LV end-systolic diameter)” value (Dahl salt-sensitive rats [2]; [5]) was 4.9 ± 0.5 mm. The “FS (LV fractional shortening)” value (Dahl salt-sensitive rats [2]; [5]) was 38.3 ± 4.6%, the “PWT (LV posterior wall thickness)” value (Dahl salt-sensitive rats [2]; [5]) was 1.5 ± 0.03 mm and the “Systolic Wall Stress” value (Dahl salt-sensitive rats [2]; 24 weeks of age, treated 11 to 19 weeks) was 105.8 ± 13.6 g/cm^2.

With `CC[C@H](C)[C@H](NC(=O)[C@@H]1CCCN1C(=O)[C@H](C)NC(=O)[C@H](CC(=O)O)NC(=O)[C@H](Cc1c[nH]cn1)NC(=O)[C@@H](N)CSSC[C@H](N)C(=O)N[C@@H](Cc1ccc(O)cc1)C(=O)NCC(=O)N[C@@H](CCCNC(=N)N)C(=O)N[C@@H](CCCCN)C(=O)N[C@@H](CCCCN)C(=O)N[C@@H](CCCNC(=N)N)C(=O)N[C@@H](CCCNC(=N)N)C(=O)N[C@@H](CCC(N)=O)C(=O)N[C@@H](CCCNC(=N)N)C(=O)N[C@@H](CCCNC(=N)N)C(=O)N[C@@H](CCCNC(=N)N)C(=O)O)C(=O)NCC(=O)N[C@@H](Cc1ccc(O)cc1)C(=O)N[C@@H](CC(=O)O)C(=O)O` [ΨεR] the arterial stenosis (Dahl salt-sensitive rats [1]; hypertensive rats, chronic treatment) was “induced arterial stenosis” and the arterial stenosis (Dahl salt-sensitive rats [1]; normotensive Dahl salt-sensitive rats on a low-salt diet) was “did not cause arterial stenosis”.

For “βIIV5-3: βIIV5-3 peptide inhibitor QEVIRN (SEQ ID NO: 3), from the V5 domain of βIIPKC (Synthetic peptide inhibitor)”, the systolic blood pressure (Dahl salt-sensitive rats [3]) was “less than in the TAT or βIV5-3 peptide-treated animals”, the “left ventricular weight to body weight ratio (LVW/BW)” value (Dahl salt-sensitive rats [2]; 17-weeks old rats) was “reduced” and the fractional shortening (Dahl salt-sensitive rats [2]; at 17 weeks, vs TAT control, in words) was “significantly reduced fractional shortening”. The wall stress (Dahl salt-sensitive rats [2]; hypertensive rats, in words) was “reduces wall stress” and the survival (Dahl salt-sensitive rats [2]) was “prolonged survival significantly longer than treatment with the βIV5-3 peptide inhibitor”.

For “βIV5-3: βIV5-3 PKC peptide inhibitor KLFIMN (SEQ ID NO: 2), from the V5 domain of βIPKC (Synthetic PKC peptide inhibitor)”, the survival (Dahl salt-sensitive rats [2]) was “prolonged survival”.
